What is called AC50 is the concentration giving half of the maximal activity seen.

The target of assay [1] is T1, Muscarinic acetylcholine receptor M2 (Homo sapiens, UniProt P08172).
T1 sequence (P08172 whole entry): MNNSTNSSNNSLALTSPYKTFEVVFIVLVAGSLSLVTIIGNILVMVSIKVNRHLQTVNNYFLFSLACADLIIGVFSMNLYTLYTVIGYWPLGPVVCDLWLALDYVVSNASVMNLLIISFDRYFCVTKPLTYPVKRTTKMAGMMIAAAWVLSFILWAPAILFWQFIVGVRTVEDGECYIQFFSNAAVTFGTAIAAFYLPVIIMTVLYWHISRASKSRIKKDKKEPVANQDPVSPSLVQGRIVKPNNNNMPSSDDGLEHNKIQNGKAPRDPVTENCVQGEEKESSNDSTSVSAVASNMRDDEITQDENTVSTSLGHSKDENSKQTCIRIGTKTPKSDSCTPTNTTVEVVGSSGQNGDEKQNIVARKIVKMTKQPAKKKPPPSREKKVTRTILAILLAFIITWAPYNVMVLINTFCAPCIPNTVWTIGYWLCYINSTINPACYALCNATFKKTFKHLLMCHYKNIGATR
The format is functional, cell-based.

Assay [2] has as its target Vasopressin V1a receptor (Homo sapiens, UniProt P37288).
Assay [3] has as its target T2, B2 bradykinin receptor (Homo sapiens, UniProt P30411).
T2 sequence (P30411 whole entry): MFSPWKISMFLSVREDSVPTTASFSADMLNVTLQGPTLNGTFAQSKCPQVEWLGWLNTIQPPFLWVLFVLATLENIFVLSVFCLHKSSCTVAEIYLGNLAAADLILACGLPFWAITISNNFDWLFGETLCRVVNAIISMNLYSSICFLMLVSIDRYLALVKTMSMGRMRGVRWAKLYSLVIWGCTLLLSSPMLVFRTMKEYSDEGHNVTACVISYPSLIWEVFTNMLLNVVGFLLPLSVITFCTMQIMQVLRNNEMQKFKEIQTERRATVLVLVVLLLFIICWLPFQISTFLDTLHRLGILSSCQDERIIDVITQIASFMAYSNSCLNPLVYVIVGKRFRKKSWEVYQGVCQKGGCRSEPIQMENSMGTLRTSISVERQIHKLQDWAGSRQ

Assay [4] deals with T3, Progesterone receptor (Homo sapiens, UniProt P06401).
T3 sequence (P06401 whole entry): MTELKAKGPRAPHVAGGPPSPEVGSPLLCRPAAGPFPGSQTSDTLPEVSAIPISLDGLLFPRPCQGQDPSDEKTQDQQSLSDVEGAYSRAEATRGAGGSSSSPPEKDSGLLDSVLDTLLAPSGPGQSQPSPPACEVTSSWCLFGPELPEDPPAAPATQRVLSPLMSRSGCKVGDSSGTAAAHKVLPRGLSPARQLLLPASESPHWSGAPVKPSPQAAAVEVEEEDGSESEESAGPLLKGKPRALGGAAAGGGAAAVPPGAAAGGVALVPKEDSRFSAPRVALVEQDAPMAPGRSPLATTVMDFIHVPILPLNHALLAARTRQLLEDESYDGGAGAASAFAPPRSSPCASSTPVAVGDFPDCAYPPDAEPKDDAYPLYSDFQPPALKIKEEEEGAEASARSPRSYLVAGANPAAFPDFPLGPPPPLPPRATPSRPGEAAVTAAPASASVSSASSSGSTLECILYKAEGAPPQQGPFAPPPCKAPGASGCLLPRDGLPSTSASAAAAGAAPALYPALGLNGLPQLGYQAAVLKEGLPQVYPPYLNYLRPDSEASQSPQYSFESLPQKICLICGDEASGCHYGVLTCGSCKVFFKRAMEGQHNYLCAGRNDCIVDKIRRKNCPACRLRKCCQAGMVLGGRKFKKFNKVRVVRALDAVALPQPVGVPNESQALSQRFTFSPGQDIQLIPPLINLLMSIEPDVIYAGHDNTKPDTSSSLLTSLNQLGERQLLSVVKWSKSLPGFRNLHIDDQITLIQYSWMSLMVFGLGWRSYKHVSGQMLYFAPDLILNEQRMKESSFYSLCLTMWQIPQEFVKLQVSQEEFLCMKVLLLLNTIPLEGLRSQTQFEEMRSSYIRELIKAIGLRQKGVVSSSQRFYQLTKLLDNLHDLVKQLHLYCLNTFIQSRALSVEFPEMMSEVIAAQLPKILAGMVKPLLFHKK
The format is functional.

In assay [5] the target is Neuronal acetylcholine receptor subunit alpha-4 (Homo sapiens, UniProt P43681).
Chain of Neuronal acetylcholine receptor subunit alpha-4 (P43681 whole entry): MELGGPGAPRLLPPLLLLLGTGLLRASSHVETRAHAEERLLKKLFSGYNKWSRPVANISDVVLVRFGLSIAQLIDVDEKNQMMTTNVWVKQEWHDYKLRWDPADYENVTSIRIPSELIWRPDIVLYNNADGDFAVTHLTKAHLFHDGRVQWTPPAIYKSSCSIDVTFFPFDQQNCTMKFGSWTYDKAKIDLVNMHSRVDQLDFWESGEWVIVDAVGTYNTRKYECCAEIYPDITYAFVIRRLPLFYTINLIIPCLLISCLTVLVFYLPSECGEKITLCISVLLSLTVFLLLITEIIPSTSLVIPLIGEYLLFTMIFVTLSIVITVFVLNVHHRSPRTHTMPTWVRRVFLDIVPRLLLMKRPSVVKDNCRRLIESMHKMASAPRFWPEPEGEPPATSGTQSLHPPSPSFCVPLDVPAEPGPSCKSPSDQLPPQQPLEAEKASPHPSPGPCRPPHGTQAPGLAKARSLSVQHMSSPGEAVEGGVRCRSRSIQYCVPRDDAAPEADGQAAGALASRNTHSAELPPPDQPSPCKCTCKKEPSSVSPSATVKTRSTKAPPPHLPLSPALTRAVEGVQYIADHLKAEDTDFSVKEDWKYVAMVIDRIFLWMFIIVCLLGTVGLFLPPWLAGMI
Assay [6] has as its target Vasopressin V2 receptor (Homo sapiens, UniProt P30518).
In assay [7] the target is Delta-type opioid receptor (Homo sapiens, UniProt P41143).
Chain of Delta-type opioid receptor (P41143 whole entry): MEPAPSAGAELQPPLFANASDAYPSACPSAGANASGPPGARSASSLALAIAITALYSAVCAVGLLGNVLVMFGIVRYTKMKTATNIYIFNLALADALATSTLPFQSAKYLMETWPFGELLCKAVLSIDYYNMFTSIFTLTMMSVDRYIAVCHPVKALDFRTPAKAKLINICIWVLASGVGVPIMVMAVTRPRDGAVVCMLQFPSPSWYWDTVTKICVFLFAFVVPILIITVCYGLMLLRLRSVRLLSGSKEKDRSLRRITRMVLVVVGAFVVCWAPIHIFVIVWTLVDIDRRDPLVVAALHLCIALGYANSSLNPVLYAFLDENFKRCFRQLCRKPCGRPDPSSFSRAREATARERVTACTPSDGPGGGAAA
The target in assay [8] is T4, Prostaglandin G/H synthase 1 (Rattus norvegicus, UniProt Q63921).
T4 sequence (Q63921 whole entry): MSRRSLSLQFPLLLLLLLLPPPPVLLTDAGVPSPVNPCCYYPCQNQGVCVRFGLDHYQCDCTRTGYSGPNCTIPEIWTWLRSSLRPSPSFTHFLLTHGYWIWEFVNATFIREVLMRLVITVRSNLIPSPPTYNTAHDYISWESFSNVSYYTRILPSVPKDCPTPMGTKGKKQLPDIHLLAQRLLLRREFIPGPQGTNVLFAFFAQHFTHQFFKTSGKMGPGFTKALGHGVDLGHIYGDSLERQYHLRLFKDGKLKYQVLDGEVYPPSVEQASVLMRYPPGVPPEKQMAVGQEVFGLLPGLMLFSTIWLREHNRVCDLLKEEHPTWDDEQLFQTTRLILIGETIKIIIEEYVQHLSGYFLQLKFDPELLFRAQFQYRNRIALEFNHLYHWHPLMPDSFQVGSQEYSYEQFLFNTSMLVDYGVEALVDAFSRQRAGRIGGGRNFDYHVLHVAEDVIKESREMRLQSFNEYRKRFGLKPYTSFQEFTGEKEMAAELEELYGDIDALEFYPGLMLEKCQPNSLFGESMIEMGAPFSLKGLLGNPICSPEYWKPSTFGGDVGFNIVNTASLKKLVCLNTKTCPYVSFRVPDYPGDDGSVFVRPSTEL
The format is functional.

For assay [9], the target named is T5, Adenosine receptor A3 (Homo sapiens, UniProt P0DMS8).
T5 sequence (P0DMS8 whole entry): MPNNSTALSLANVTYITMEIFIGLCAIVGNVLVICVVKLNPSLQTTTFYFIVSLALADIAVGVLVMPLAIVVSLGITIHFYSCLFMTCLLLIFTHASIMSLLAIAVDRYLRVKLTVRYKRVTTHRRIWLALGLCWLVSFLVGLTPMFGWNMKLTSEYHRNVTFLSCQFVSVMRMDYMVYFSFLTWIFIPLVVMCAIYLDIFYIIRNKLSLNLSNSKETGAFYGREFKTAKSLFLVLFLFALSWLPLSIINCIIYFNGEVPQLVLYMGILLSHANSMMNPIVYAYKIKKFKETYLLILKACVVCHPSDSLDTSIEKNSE
Note: assay procedure not described here.

Chain of Vasopressin V2 receptor (P30518 whole entry): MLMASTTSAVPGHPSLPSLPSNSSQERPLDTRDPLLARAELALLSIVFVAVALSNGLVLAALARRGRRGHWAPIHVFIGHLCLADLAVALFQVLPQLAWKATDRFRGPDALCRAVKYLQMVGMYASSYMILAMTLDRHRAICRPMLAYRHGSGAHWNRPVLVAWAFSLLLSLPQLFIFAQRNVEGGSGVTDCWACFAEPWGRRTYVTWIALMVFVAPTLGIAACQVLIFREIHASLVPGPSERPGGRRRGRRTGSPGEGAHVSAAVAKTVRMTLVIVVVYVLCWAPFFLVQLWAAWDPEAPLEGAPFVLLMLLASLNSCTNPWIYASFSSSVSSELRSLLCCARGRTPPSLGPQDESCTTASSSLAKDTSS
Chain of Vasopressin V1a receptor (P37288 whole entry): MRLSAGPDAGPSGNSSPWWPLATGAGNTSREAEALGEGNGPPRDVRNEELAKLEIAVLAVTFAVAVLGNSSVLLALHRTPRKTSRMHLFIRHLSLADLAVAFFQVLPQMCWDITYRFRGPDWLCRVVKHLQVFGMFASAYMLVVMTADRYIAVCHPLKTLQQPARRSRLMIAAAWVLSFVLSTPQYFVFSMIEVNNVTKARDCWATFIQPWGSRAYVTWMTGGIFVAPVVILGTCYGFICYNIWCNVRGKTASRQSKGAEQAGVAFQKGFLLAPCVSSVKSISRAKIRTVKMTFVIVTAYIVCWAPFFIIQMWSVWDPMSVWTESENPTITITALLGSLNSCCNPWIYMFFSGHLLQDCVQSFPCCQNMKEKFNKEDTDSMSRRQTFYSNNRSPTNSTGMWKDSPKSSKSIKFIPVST

Take `CCCC(=O)O[C@]1(C(=O)CO)CC[C@H]2[C@@H]3CCC4=CC(=O)CC[C@]4(C)[C@H]3[C@@H](O)C[C@@]21C` [HYDROCORTISONE BUTYRATE]: the AC50 is > 10 µM in assay [1]; > 10 µM in assay [2]; > 10 µM in assay [3]; 0.042 µM in assay [4]; > 10 µM in assay [5]; > 10 µM in assay [6]. Moreover, the half-maximal activity concentration (AC50) in assay [7] was > 30 µM; in assay [8], > 10 µM; in [9], > 10 µM.
As for `CC(C)(C)C(=O)Oc1ccc(S(=O)(=O)Nc2ccccc2C(=O)NCC(=O)O)cc1`, the AC50 in assay [1], in [2], in assay [3], in assay [4], in assay [5] and in assay [6] was > 30 µM in each case. Besides, the AC50 in assay [7], in assay [8] and in [9] was > 30 µM in each case.
Consider `Cc1cccc(C(C)c2cnc[nH]2)c1C` (stereo not drawn) [MEDETOMIDINE], for which the AC50 in assay [1] was > 10 µM; in assay [2], > 30 µM; in assay [3], > 30 µM; in [4], > 30 µM; in assay [5], > 30 µM; in assay [6], > 30 µM. Further, the AC50 in assay [7], in [8] and in assay [9] was > 30 µM each time.
On to `Clc1ccc(CCCOCCCN2CCCCC2)cc1` [PITOLISANT], for which the AC50 in assay [1], in assay [2], in [3], in [4], in assay [5] and in assay [6] was > 30 µM in each case. The AC50 in assay [7], in assay [8] and in [9] was > 30 µM throughout.
As for `COC(=O)C1=C(C)NC(C)=C(C(=O)OC(C)(C)CN(C)CCC(c2ccccc2)c2ccccc2)C1c1cccc([N+](=O)[O-])c1` (stereo not drawn) [LERCANIDIPINE], the AC50 in assay [1], in [2], in assay [3], in assay [4], in assay [5] and in [6] was > 30 µM each time. Further, the half-maximal activity concentration (AC50) in assay [7] was > 30 µM; in assay [8], 18.7 µM; in [9], 8.8 µM.
In the case of `CCC(C(=O)O)c1ccc(N2Cc3ccccc3C2=O)cc1` (stereo not drawn) [INDOBUFEN], the concentration at half-maximal activity (AC50) in assay [1], in assay [2], in assay [3], in assay [4], in [5] and in assay [6] was > 30 µM each time. Also, the AC50 in assay [7] was > 30 µM; in [8], 0.8 µM; in [9], > 30 µM.
With `CC(Oc1c(Cl)cccc1Cl)C1=NCCN1` (stereo not drawn) [LOFEXIDINE], the AC50 in assay [1], in assay [2], in assay [3], in [4], in assay [5] and in assay [6] was > 30 µM each time. Further, the AC50 in [7], in assay [8] and in assay [9] was > 30 µM throughout.
As for `CC(C)=CCC/C(C)=C/C=C/C(C)=C/C=C/C(C)=C/C=C/C=C(C)/C=C/C=C(C)/C=C/C=C(\C)CCC=C(C)C` [LYCOPENE], the concentration at half-maximal activity (AC50) in assay [1], in [2], in assay [3], in assay [4], in assay [5] and in assay [6] was > 30 µM throughout. Moreover, the AC50 in assay [7], in assay [8] and in [9] was > 30 µM each time.
On to `CCC1(CC)C(=O)NCC(C)C1=O` (stereo not drawn) [METHYPRYLON], for which the AC50 in assay [1], in assay [2], in assay [3], in [4], in [5] and in assay [6] was > 30 µM in each case. For the same compound, the AC50 in assay [7], in [8] and in [9] was > 30 µM in each case.
In the case of `COc1ccc(CCN(C)CCCC(C#N)(c2cc(OC)c(OC)c(OC)c2)C(C)C)cc1OC` (stereo not drawn) [GALLOPAMIL], the AC50 in [1], in assay [2], in assay [3], in assay [4], in [5] and in assay [6] was > 30 µM throughout. Besides, the AC50 in [7], in assay [8] and in assay [9] was > 30 µM throughout.
With `O=C(O)C1=C(CSc2nnnn2CS(=O)(=O)O)CS[C@@H]2[C@H](NC(=O)[C@H](O)c3ccccc3)C(=O)N12` [CEFONICID], the AC50 in assay [1], in assay [2], in assay [3], in assay [4], in [5] and in assay [6] was > 30 µM in each case. Also, the AC50 in assay [7], in [8] and in [9] was > 30 µM in each case.
Consider `O=C(O)CCCCCCCC(=O)O` [AZELAIC ACID], for which the AC50 in [1], in assay [2], in assay [3], in assay [4], in assay [5] and in [6] was > 10 µM in each case. For the same compound, the AC50 in assay [7] was > 30 µM; in assay [8], > 10 µM; in assay [9], > 10 µM.

For the origin of these results see ChEMBL document CHEMBL5291721, “A preclinical secondary pharmacology resource illuminates target-adverse drug reaction associations of marketed drugs” (Nat Commun, 2023).
